Results as given in patent publication US20210040089A1, “KRAS MUTANT PROTEIN INHIBITORS” (Jacobio Pharmaceuticals Co., Ltd., priority 2019, published 2021).

Columns and labels:
[1] = tested on: Phospho-ERK1/2(THR202/TYR204) in NCI-H358 cells express KRAS G12C; assay: Phospho-ERK1/2(THR202/TYR204) HTRF assay; format: cell-based; conditions: Homo sapiens; NCI-H358, 2 hours incubation; read-out: p-ERK inhibition in NCI-H358 IC50
Experimental: NCI-H358 cells express KRAS G12C were cultured in RPMI 1640 medium (Gibco) containing 10% fetal bovine serum (Gibco). Cells in culture medium were plated in 96-well plates at a concentration of 40,000 cells/well and allowed to attach overnight. The next day, culture medium was removed and added compounds diluted in assay medium (RPMI 1640, 0.1% EFBS). After 2 hours incubation in a 37° C./5% CO2 cell incubator, the assay medium was removed, then 50 μL of 1× supplemented lysis buffer (Cisbio) was added and the plates were incubated at 25° C. for 45 min with shaking. 10 μL of cell lysates from the 96-well plates were transferred to a 384-well plate (Greiner) containing 2.5 µL/well HTRF® pre-mixed antibodies (Cisbio 64AERPEH).
Incubate 4 hours at 25° C. and then read HTRF signals on Tecan Spark multimode microplate reader. The data were analyzed using a 4-parameter logistic model to calculate IC50 values.

KRAS G12C = target: T1, KRAS G12C (Homo sapiens, UniProt P01116, G12C); assay: SOS1 catalyzed nucleotide exchange assay (TR-FRET); format: biochemical; conditions: GDP-loaded HIS-KRAS(G12C), 1 hour pre-incubation with compound
T1 construct: HIS-KRAS (G12C, aa 2-185, Sino biological); purchased Sino biological
T1 sequence (P01116 2-185 isoform P01116-2 G12C): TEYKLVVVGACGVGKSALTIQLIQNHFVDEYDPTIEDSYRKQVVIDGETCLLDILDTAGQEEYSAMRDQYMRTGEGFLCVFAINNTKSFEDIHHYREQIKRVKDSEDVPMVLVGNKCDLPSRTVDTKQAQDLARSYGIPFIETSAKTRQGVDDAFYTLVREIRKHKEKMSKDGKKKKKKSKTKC
Experimental: 1. SOS1 Catalyzed Nucleotide Exchange Assay
HIS-KRAS (G12C, aa 2-185, Sino biological) was diluted to […] EDTA buffer (20 mM HEPES, pH 7.4, 50 mM NaCl, 10 mM EDA, 0.01% (v/v) Tween-20) and incubated for 30 min at 25° C. The EDTA pretreated HIS-KRAS(G12C) was diluted to 12 nM in assay buffer (25 mM HEPES, pH 7.4, 120 mM NaCl, 5 mM MgCl2, 1 mM DTI, 0.01% (v/v) Tween 20, 0.1% (w/v) BSA) containing 120 nM GDP(Sigma) and Mab Anti 6HIS-Tb cryptate Gold(Cisbio) and incubated for 1 hour at 25° C. to prepare GDP-loaded HIS-KRAS(G12C). The GDP-loaded HIS-KRAS(G12C) was pre-incubation with diluted compounds in a 384-well plate (Greiner) for 1 hour, then purified SOS 1ExD (Flag tag, aa 564-1049) and BODIPY™FL GTP (Invitrogen) were added to the assay wells (Final concentration: 3 nM HIS-KRAS(G12C), 2 μM SOS1 ExD, 80 nM BODIPY™FL GTP, 21 ng/mL MAb Anti 6HS-Tb cryptate Gold) and incubated for 4 hours at 25° C. TR-FRET signals were then read on Tecan Spark multimode microplate reader. The parameters were F486: Excitation 340 (35) nm, Emission 486 (10) nm, Lag time 100 μs, Integration time […]; F515: Excitation 340 (35) nm, Emission 515 (10) nm, Lag time […], Integration time 200 s. TR-FRET ratios for each individual wells were calculated by equation: TR-FRET ratio=(Signal F515/Signal F486)*10000. Then the data were analyzed using a 4-parameter logistic model to calculate IC50 values.

[2] = tested on: NCI-H358 cells express KRAS G12C; assay: Cell growth inhibition assay (CCK-8); format: cell-based; conditions: Homo sapiens, 144 h; NCI-H358, 6 days incubation
Experimental: 3. Cell Growth inhibition assay
NCI-H358 cells express KRAS G12C were cultured in RPMI 1640 medium (Gibco) containing 10% fetal bovine serum (Gibco). Cells in culture medium were plated in 96-well plates at a concentration of 3000 cells/well ([…]) and allowed to attach overnight. The next day, compounds were diluted in culture medium and added to the plates. After 6 days incubation in a 37° C./5% CO2 cell incubator, the medium was removed, then 100 μL of 1×CCK-8 (MCE) in culture medium was added in each well. The plates were incubated 1.5-2 hours in a 37° C./5% CO2 cell incubator. OD450 signals were read on Tecan Spark multimode microplate reader and analyzed using a 4-parameter logistic model to calculate IC50 values.

Compound	IC50 [1]	IC50 (KRAS G12C)	IC50 [2]
C=CC(=O)N1CCN(c2nc(O[C@H]3CC[C@H](N(C)C)CC3)nc3c2CCN(c2cccc4ccccc24)C3)CC1CC#N (some centres unmarked) [Compound 1, 2-(1-acryloyl-4-(2-(((1r,4r)-4-(dimethylamino)cyclohexyl)oxy)-7-(naphthalen-1-yl)-5,6,7,8-tetrahydropyrido[3,4-d]pyrimidin-4-yl)piperazin-2-yl)acetonitrile]	3200 nM		
C=CC(=O)N1CCN(c2nc(OCC3(CN(C)C)CC3)nc3c2CCN(c2cccc4ccn(C)c(=O)c24)C3)CC1CC#N (centres unmarked) [Compound 2, 2-(1-acryloyl-4-(2-((1-((dimethylamino)methyl)cyclopropyl)methoxy)-7-(2-methyl-1-oxo-1,2-dihydroisoquinolin-8-yl)-5,6,7,8-tetrahydropyrido[3,4-d]pyrimidin-4-yl)piperazin-2-yl)acetonitrile]		> 500 nM	
C=CC(=O)N1CCN(c2nc(OCC3(N(C)C)CCC3)nc3c2CCN(c2cccc4ccccc24)C3)CC1CC#N (centres unmarked) [Compound 9, 2-(1-acryloyl-4-(2-((1-(dimethylamino)cyclobutyl)methoxy)-7-(naphthalen-1-yl)-5,6,7,8-tetrahydropyrido[3,4-d]pyrimidin-4-yl)piperazin-2-yl)acetonitrile]	1150 nM		888 nM
C=CC(=O)N1CCN(c2nc(OC3CCCCC3N(C)C)nc3c2CCN(c2cccc4ccccc24)C3)CC1CC#N (centres unmarked) [Compound 11, 2-(1-acryloyl-4-(2-((2-(dimethylamino)cyclohexyl)oxy)-7-(naphthalen-1-yl)-5,6,7,8-tetrahydropyrido[3,4-d]pyrimidin-4-yl)piperazin-2-yl)acetonitrile]	9860 nM		
C=CC(=O)N1CCN(c2nc(OC3CCC(N(C)C)C3)nc3c2CCN(c2cccc4ccccc24)C3)CC1CC#N (centres unmarked) [Compound 13, 2-(1-acryloyl-4-(2-((3-(dimethylamino)cyclopentyl)oxy)-7-(naphthalen-1-yl)-5,6,7,8-tetrahydropyrido[3,4-d]pyrimidin-4-yl)piperazin-2-yl)acetonitrile]	1210 nM	684 nM	
C=CC(=O)N1CCN(c2nc(OC3CCCC3N3CCN(C)CC3)nc3c2CCN(c2cccc4ccccc24)C3)CC1CC#N (centres unmarked) [Compound 16, 2-(1-acryloyl-4-(2-((2-(4-methylpiperazin-1-yl)cyclopentyl)oxy)-7-(naphthalen-1-yl)-5,6,7,8-tetrahydropyrido[3,4-d]pyrimidin-4-yl)piperazin-2-yl)acetonitrile]	7060 nM		
C=CC(=O)N1CCN(c2nc(OCC3CC3CN(C)C)nc3c2CCN(c2cccc4ccccc24)C3)CC1CC#N (centres unmarked) [Compound 19, 2-(1-acryloyl-4-(2-((2-((dimethylamino)methyl)cyclopropyl)methoxy)-7-(naphthalen-1-yl)-5,6,7,8-tetrahydropyrido[3,4-d]pyrimidin-4-yl)piperazin-2-yl)acetonitrile]	748 nM	372 nM	
C=CC(=O)N1CCN(c2nc(OCCC3CCCC3N(C)C)nc3c2CCN(c2cccc4ccccc24)C3)CC1CC#N (centres unmarked) [Compound 21, 2-(1-acryloyl-4-(2-(2-(2-(dimethylamino)cyclopentyl)ethoxy)-7-(naphthalen-1-yl)-5,6,7,8-tetrahydropyrido[3,4-d]pyrimidin-4-yl)piperazin-2-yl)acetonitrile]	> 1000 nM		
C=CC(=O)N1CCN(c2nc(OCC3CCC(N(C)C)C3)nc3c2CCN(c2cccc(F)c2Cl)C3)CC1CC#N (centres unmarked) [Compound 29, 2-(1-acryloyl-4-(7-(2-chloro-3-fluorophenyl)-2-((3-(dimethylamino)cyclopentyl)methoxy)-5,6,7,8-tetrahydropyrido[3,4-d]pyrimidin-4-yl)piperazin-2-yl)acetonitrile]	> 1000 nM		
C=CC(=O)N1CCN(c2nc(OCC3(N4CCCC4)CC3)nc3c2CCN(c2cccc4ccccc24)C3)CC1CC#N (centres unmarked) [Compound 32, 2-(1-acryloyl-4-(7-(naphthalen-1-yl)-2-((1-(pyrrolidin-1-yl)cyclopropyl)methoxy)-5,6,7,8-tetrahydropyrido[3,4-d]pyrimidin-4-yl)piperazin-2-yl)acetonitrile]			696 nM
C=CC(=O)N1CCN(c2nc(OCC3CCC(N4CCCC4)C3)nc3c2CCN(c2cccc4ccccc24)C3)CC1CC#N (centres unmarked) [Compound 33, 2-(1-acryloyl-4-(7-(26aphthalene-1-yl)-2-((3-(pyrrolidin-1-yl)cyclopentyl)methoxy)-5,6,7,8-tetrahydropyrido[3,4-d]pyrimidin-4-yl)piperazin-2-yl)acetonitrile]	302 nM		652 nM
C=CC(=O)N1CCN(c2nc(OCC3(CN(C)C)CC3)nc3c2CCN(c2cccc4scnc24)C3)CC1CC#N (centres unmarked) [Compound 52, 2-(1-acryloyl-4-(7-(benzo[d]thiazol-4-yl)-2-((1-((dimethylamino)methyl)cyclopropyl)methoxy)-5,6,7,8-tetrahydropyrido[3,4-d]pyrimidin-4-yl)piperazin-2-yl)acetonitrile]	> 500 nM	485 nM	
C=CC(=O)N1CCN(c2nc(OCC3(CN(C)C)CC3)nc3c2CCN(c2cccc4c2OCC4)C3)CC1CC#N (centres unmarked) [Compound 53, 2-(1-acryloyl-4-(7-(2,3-dihydrobenzofuran-7-yl)-2-((1-((dimethylamino)methyl)cyclopropyl)methoxy)-5,6,7,8-tetrahydropyrido[3,4-d]pyrimidin-4-yl)piperazin-2-yl)acetonitrile]	> 500 nM	174 nM	
C=CC(=O)N1CCN(c2nc(OCC3(CN(C)C)CC3)nc3c2CCN(c2c(N)cccc2F)C3)CC1CC#N (centres unmarked) [Compound 55, 2-(1-acryloyl-4-(7-(2-amino-6-fluorophenyl)-2-((1-((dimethylamino)methyl)cyclopropyl)methoxy)-5,6,7,8-tetrahydropyrido[3,4-d]pyrimidin-4-yl)piperazin-2-yl)acetonitrile]		> 500 nM	
C=CC(=O)N1CCN(c2nc(O[C@H]3CCCC[C@@H]3N(C)C)nc3c2CCN(c2cccc4ccccc24)C3)CC1CC#N (stereo partly drawn) [Compound 60, 2-(1-acryloyl-4-(2-(((1S,2S)-2-(dimethylamino)cyclohexyl)oxy)-7-(naphthalen-1-yl)-5,6,7,8-tetrahydropyrido[3,4-d]pyrimidin-4-yl)piperazin-2-yl)acetonitrile]	7120 nM		
C=C(F)C(=O)N1CCN(c2nc(OCC3(CN(C)C)CC3)nc3c2CCN(c2cccc(C)c2C)C3)CC1CC#N (centres unmarked) [Compound 80, 2-(4-(2-((1-((dimethylamino)methyl)cyclopropyl)methoxy)-7-(2,3-dimethylphenyl)-5,6,7,8-tetrahydropyrido[3,4-d]pyrimidin-4-yl)-1-(2-fluoroacryloyl)piperazin-2-yl)acetonitrile]	> 500 nM	285 nM	
C=C(F)C(=O)N1CCN(c2nc(OCC3(CN4CCC(F)(F)C4)CC3)nc3c2CCN(c2cccc4cccc(C)c24)C3)CC1CC#N (centres unmarked) [Compound 81, 2-(4-(2-((1-((3,3-difluoropyrrolidin-1-yl)methyl)cyclopropyl)methoxy)-7-(8-methylnaphthalen-1-yl)-5,6,7,8-tetrahydropyrido[3,4-d]pyrimidin-4-yl)-1-(2-fluoroacryloyl)piperazin-2-yl)acetonitrile]		> 500 nM	
C/C=C/C(=O)N1CCN(c2nc(OCC3(CN(C)C)CC3)nc3c2CCN(c2cccc(C)c2C)C3)CC1CC#N (centres unmarked) [Compound 82, (E)-2-(1-(but-2-enoyl)-4-(2-((1-((dimethylamino)methyl)cyclopropyl)methoxy)-7-(2,3-dimethylphenyl)-5,6,7,8-tetrahydropyrido[3,4-d]pyrimidin-4-yl)piperazin-2-yl)acetonitrile]	> 500 nM	211 nM	
